Results reported in US20030207812A1, “Cd45 inhibitors” (priority 2002, published 2003).
Where two headings read alike, the source gives them in different places. Where a SMILES comes first, the peptide text is derived from it. The star is where a group is joined. 3Phenanthroyl(9,10-dioxo) = O=C1C(=O)c2ccc(C(=O)*)cc2-c2ccccc21

Experiments:
CD45 [1] = molecular target: T1, CD45 (Homo sapiens, UniProt P08575); assay: Phosphatase assay using lck 10-mer as substrate; type: biochemical
T1 construct: incubating the cytosolic portion of CD45 with the compounds and p-nitrophenyl phosphate (pNPP); purchased BIOMOL (Plymouth Meeting, Pa.)
T1 sequence (P08575 599-1306 limits assumed): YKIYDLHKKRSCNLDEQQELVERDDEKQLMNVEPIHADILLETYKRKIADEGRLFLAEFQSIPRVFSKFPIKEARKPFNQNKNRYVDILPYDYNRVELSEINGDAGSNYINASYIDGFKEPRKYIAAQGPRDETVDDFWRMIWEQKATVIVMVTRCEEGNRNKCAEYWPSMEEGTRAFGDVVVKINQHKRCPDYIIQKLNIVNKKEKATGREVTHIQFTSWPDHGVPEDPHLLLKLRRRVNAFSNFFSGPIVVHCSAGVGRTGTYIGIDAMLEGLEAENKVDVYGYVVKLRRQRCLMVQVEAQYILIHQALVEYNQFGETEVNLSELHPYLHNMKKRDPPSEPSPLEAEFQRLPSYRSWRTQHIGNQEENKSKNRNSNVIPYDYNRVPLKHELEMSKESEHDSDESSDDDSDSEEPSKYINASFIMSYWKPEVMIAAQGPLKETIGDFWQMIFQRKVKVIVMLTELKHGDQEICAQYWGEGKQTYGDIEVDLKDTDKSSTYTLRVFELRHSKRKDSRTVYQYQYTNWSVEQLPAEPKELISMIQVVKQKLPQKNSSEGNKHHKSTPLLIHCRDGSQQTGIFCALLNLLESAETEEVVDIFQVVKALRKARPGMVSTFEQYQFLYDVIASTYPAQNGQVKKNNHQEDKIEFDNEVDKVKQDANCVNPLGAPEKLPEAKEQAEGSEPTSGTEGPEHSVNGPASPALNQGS
Procedure: Phosphatase assay using lck 10-mer as substrate:
Phosphatase activity was assayed in 96 well plates in a buffer containing final concentrations of 25 mM HEPES at pH 7.2, 5 mM DTT and 10 μg/mL BSA using the lck carboxy-terminal peptide TEGQpYQPQP as the substrate (Cho, H., Krishnaraj, R., Itoh, M., Kitas, E., Bannwarth, W., Saito, H., Walsh, C. T. 1993. Substrate specificities of catalytic fragments of protein tyrosine phosphatases (HPTPb, LAR, and CD45) toward the phosphotyrosylpeptide substrates and thiophosphotyrosylated peptides as inhibitors. Protein Science 2:977-984). Compounds were tested in a range from 30 to 0.01 μM in a final concentration of 5% DMSO. Enzyme was incubated with substrate with or without compound, at room temperature for 1.5 h. At the end of the incubation period, BIOMOL “Green Reagent” (BIOMOL, Plymouth Meeting, Pa.) was added to each well, the plates incubated at room temperature for 30 min and absorbance read at 620 nm.

CD45 [2] = molecular target: T1, CD45; assay: Phosphatase assay using pNPP as substrate; type: biochemical; conditions: read-out: pNPP IC50
Procedure: Phosphatase assay using pNPP as substrate:
CD45 enzyme was obtained from BIOMOL (Plymouth Meeting, Pa.). Phosphatase activity was assayed in a buffer containing final concentrations of 25 mM imidazole at pH 7.0, 50 mM NaCl, 2.5 mM ethylenediaminetetraacetic acid (“EDTA”), 5 mM dithiothreitol (“DTT”) and 10 μg/mL bovine serum albumin (“BSA”) using pNPP as a substrate.

in vitro = conditions: human
T cells (PBMC) = assay: cells; type: cell-based, human; conditions: read-out: T cell prolif. IC50
Procedure: Cell isolation and T cell proliferation assay:
Whole blood was obtained from healthy human blood donors. Peripheral blood mononuclear cells (“PBMC”) were isolated using Lymphoprep density-gradient centrifugation (Nycomed Amersham, Oslo, Norway), washed, counted and resuspended at 2×10^6 cells/mL in RPMI 1640 medium containing glutamine, 0.1 mg/mL gentamycin and 10% heat inactivated human serum. PBMC were transferred to 96-well plates (2×10^5 cells/well) containing compound or vehicle control, with the final concentration of DMSO not to exceed 0.3%, and incubated for 1 hour before addition of the activating anti-CD3 antibody, OKT3 (30ng/mL). After 24 hours in culture, the cells were pulsed with [^3H]thymidine (1 μCi/well) overnight and harvested the next day onto 96-well Packard GF/C filter plates using a Packard Cell Harvester (Packard Instruments, Meriden, Conn.). The filter plate was dried, the bottom of the plate sealed, 25 μL of Microscint 20 scintillation fluid added to each well, the top of the plate sealed with TopSeal-A, and the plate counted on a Packard TopCount. The data from the TopCount is transferred into Excel 5 (Microsoft, Redmond, Wash.) and formatted for EC50 determination using Prism software (GraphPad Software, San Diego, Calif.).

[3] = Cytotoxicity assay (Calcein-AM uptake); conditions: human, PHA-expanded T-cell lymphoblasts from PBMC
[4] = CD45 phosphatase, lck carboxy-terminal peptide TEGQpYQPQP substrate, pH 7.2, read-out: Ick IC50
[5] = CD45 phosphatase, pNPP substrate, pH 7.0
[6] = human PBMC, OKT3 30 ng/mL, [3H]thymidine

Row | IC50 (CD45 [1]; [4]) [nM] | IC50 (CD45 [2]; [5]) [nM] | Structure (SMILES) | IC50 (CD45 [1]) [nM] | IC50 (CD45 [2]; pH 7) [nM] | CC50 (in vitro) [nM] | IC50 (T cells (PBMC); [6]) [nM] | CC50 [3] [nM] | IC50 (T cells (PBMC); Homo sapiens) [nM]
1 |  |  | NC(=O)CC[C@H](NC(=O)[C@@H]1CCCN1C(=O)[C@H](CCC(N)=O)NC(=O)[C@H](CCC(=O)O)NC(=O)c1ccc2c(c1)-c1ccccc1C(=O)C2=O)C(=O)N1CCC[C@H]1C(=O)O [Example 24] ({3Phenanthroyl(9,10-dioxo)}-EQPQP-OH) | 2400 | 600 | > 30000 |  |  | 
2 |  |  | NC(=O)CC[C@H](NC(=O)[C@@H]1CCCN1C(=O)[C@H](CCC(N)=O)NC(=O)CNC(=O)c1ccc2c(c1)-c1ccccc1C(=O)C2=O)C(=O)N1CCC[C@H]1C(=O)O [Example 25] ({3Phenanthroyl(9,10-dioxo)}-GQPQP-OH) | 2500 | 1200 | > 30000 |  |  | 
3 |  |  | NC(=O)CC[C@H](NC(=O)c1ccc2c(c1)-c1ccccc1C(=O)C2=O)C(=O)N[C@@H](CCC(N)=O)C(=O)N1CCC[C@H]1C(=O)N[C@@H](CCC(N)=O)C(=O)N1CCC[C@H]1C(=O)O [Example 26] ({3Phenanthroyl(9,10-dioxo)}-QQPQP-OH) | 2300 | 700 | > 30000 |  |  | 
4 |  |  | NC(=O)CC[C@H](NC(=O)[C@@H]1CCCN1C(=O)[C@H](CCC(=O)O)NC(=O)CNC(=O)c1ccc2c(c1)-c1ccccc1C(=O)C2=O)C(=O)N1CCC[C@H]1C(=O)O [Example 27] ({3Phenanthroyl(9,10-dioxo)}-GEPQP-OH) | 3100 | 700 | > 30000 |  |  | 
5 |  |  | NC(=O)CC[C@H](NC(=O)c1ccc2c(c1)-c1ccccc1C(=O)C2=O)C(=O)N[C@@H](CCC(=O)O)C(=O)N1CCC[C@H]1C(=O)N[C@@H](CCC(N)=O)C(=O)N1CCC[C@H]1C(=O)O [Example 28] ({3Phenanthroyl(9,10-dioxo)}-QEPQP-OH) | 2200 | 1100 | > 30000 |  |  | 
6 |  |  | NC(=O)CC[C@H](NC(=O)CNC(=O)c1ccc2c(c1)-c1ccccc1C(=O)C2=O)C(=O)NCC(=O)N[C@@H](CCC(N)=O)C(=O)N1CCC[C@H]1C(=O)O [Example 29] ({3Phenanthroyl(9,10-dioxo)}-GQGQP-OH) | 2500 | 1100 | > 30000 |  |  | 
7 |  |  | NC(=O)CC[C@H](NC(=O)c1ccc2c(c1)-c1ccccc1C(=O)C2=O)C(=O)N[C@@H](CCC(N)=O)C(=O)NCC(=O)N[C@@H](CCC(N)=O)C(=O)N1CCC[C@H]1C(=O)O [Example 30] ({3Phenanthroyl(9,10-dioxo)}-QQGQP-OH) | 1700 | 900 | > 30000 |  |  | 
8 | 2900 | 800 | COC(=O)CCCC(=O)Nc1ccc2c(c1)-c1ccccc1C(=O)C2=O [Example 77, 4-(9,10-Dioxo-9,10-dihydro-phenanthren-3-ylcarbamoyl)-butyric Acid Methyl Ester] |  |  |  | 1600 | 9000 | 
9 | 4900 | 5900 | COC(=O)CCC(=O)Nc1ccc2c(c1)C(=O)C(=O)c1ccccc1-2 [Example 80, N-(9,10-Dioxo-9,10-dihydro-phenanthren-2-yl)-succinamic Acid Methyl Ester] |  |  |  | 700 | 6500 | 
10 | 2500 | 1200 | CC(=O)Nc1ccc2c(c1)C(=O)C(=O)c1ccccc1-2 [Example 81, N-(9,10-Dioxo-9,10-dihydro-phenanthren-2-yl)-acetamide] |  |  |  | 200 | 900 | 
11 | 2600 | 800 | Nc1ccc2c(c1)C(=O)C(=O)c1cccc([N+](=O)[O-])c1-2 [Example 84, 2-amino-5-nitro-phenanthrene-9,10-dione] |  |  |  | 700 | 4000 | 
12 | 2800 | 1400 | Nc1ccc2c(c1)C(=O)C(=O)c1cccc(N)c1-2 [Example 85, 2,5-diamino-phenanthrene-9,10-dione] |  |  |  | 500 | 4000 | 
13 | 2900 | 800 | Nc1cccc2c1-c1ccccc1C(=O)C2=O [Example 89, 4-Amino-phenanthrene-9,10-dione] |  |  |  | 200 | 9000 | 
14 | 4700 | 400 | COC(=O)CCC(=O)Nc1cccc2c1C(=O)C(=O)c1ccccc1-2 [Example 91, N-(9,10-Dioxo-9,10-dihydro-phenanthren-1-yl)-succinamic Acid Methyl Ester] |  |  |  | 500 | 9000 | 
15 | 5400 | 2400 | O=C1C(=O)c2cc([N+](=O)[O-])ccc2-c2ccccc21 [Example 92, 2-Nitro-phenanthrene-9,10-dione] |  |  |  | 1600 | 10000 | 
16 | 3100 | 370 | O=C1C(=O)c2cc(Br)ccc2-c2ccccc21 [Example 96, 2-Bromo-phenanthrene-9,10-dione] |  |  |  | 600 | 5000 | 
17 | 3300 | 1000 | O=C(O)c1ccc2c(c1)C(=O)C(=O)c1ccccc1-2 [Example 97, 9,10-Dioxo-9,10-dihydro-phenanthrene-2-carboxylic Acid] |  |  |  | > 30000 | > 30000 | 
18 | 4900 | 500 | O=C1C(=O)c2ccc([N+](=O)[O-])cc2-c2ccccc21 [Example 99, 3-Nitro-phenanthrene-9,10-dione] |  |  |  | 200 | 2800 | 
19 | 4200 | 800 | CC(=O)c1ccc2c(c1)-c1ccccc1C(=O)C2=O [Example 100, 3-Acetyl-phenanthrene-9,10-dione] |  |  |  | 800 | 3500 | 
20 | 2900 | 800 | CC(=O)c1ccc2c(c1)C(=O)C(=O)c1ccccc1-2 [Example 101, 2-Acetyl-phenanthrene-9,10-dione] |  |  |  | 1100 | 4500 | 
21 | 4900 | 600 | CC(C)(C)OC(=O)CNC(=O)c1ccc2c(c1)C(=O)C(=O)c1ccccc1-2 [Example 103, [(9,10-Dioxo-9,10-dihydro-phenanthrene-2-carbonyl)-amino]-acetic acid tert-butyl ester] |  |  |  | 400 | 10000 | 
22 | 3400 | 500 | O=C(O)CNC(=O)c1ccc2c(c1)-c1ccccc1C(=O)C2=O [Example 104, [(9,10-dioxo-9,10-dihydro-phenanthrene-3-carbonyl)-amino]-acetic acid] |  |  |  | 6500 | > 30000 | 
23 | 2200 | 800 | O=C(O)CNC(=O)c1ccc2c(c1)C(=O)C(=O)c1ccccc1-2 [Example 105, [(9,10-Dioxo-9,10-dihydro-phenanthrene-2-carbonyl)-amino]-acetic acid] |  |  |  | 4400 | > 30000 | 

Row | Structure (SMILES) | IC50 (CD45 [1]; [4]) [nM] | IC50 (CD45 [2]; [5]) [nM] | IC50 (CD45 [1]) [nM] | IC50 (CD45 [2]; pH 7) [nM] | CC50 (in vitro) [nM] | IC50 (T cells (PBMC); [6]) [nM] | CC50 [3] [nM] | IC50 (T cells (PBMC); Homo sapiens) [nM]
24 | O=C1C(=O)c2cc([N+](=O)[O-])ccc2-c2ccc([N+](=O)[O-])cc21 [Example 94, 2,7-Dinitro-phenanthrene-9,10-dione] | 5000 | 4100 |  |  |  |  | 8000 | 500
